Here are results for 19 compounds from US20240217967A1, “INDOLINE DERIVATIVES AS DDRS INHIBITORS” (CHIESI FARMACEUTICI S.P.A., priority 2021, published 2024).

As a reminder, the Ki is the dissociation constant of the complex between target and ligand, obtained from inhibition or displacement. Broadly, the IC50 is the concentration at which inhibition is half-maximal. The low end stands for greater potency in that assay, the high end for weaker potency in that assay.

Test [1] has as its target T1, DDR1 (Homo sapiens, UniProt Q08345). Briefly: DDR1 LanthaScreen Europium Kinase Binding assay. Particulars: binding affinity; IC50 converted in Ki using Cheng-Prusoff; read-out: Ki DDR1. An outline of the steps: (§1)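 Binding by TR-FRET tracer displacement: compounds incubated 1 h at room temperature with 5 nM DDR1 plus 20 nM Kinase Tracer 178, or 5 nM DDR2 plus 10 nM tracer, and 2 nM Eu anti-GST antibody in pH 7.5 HEPES/MgCl2/EGTA/BRIJ35 buffer. 665/615 nm ratio gave four-parameter IC50, converted to Ki via Cheng-Prusoff.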

Test [2] concerns the target T1, DDR1. Nature of the test: DDR1 cell based assay (PathHunter U2OS DDR1, collagen II stimulation). Particulars: U2OS-DDR1 cells, bovine Type II Collagen stimulation. In outline: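 Receptor activation measured by enzyme-fragment complementation luminescence in engineered U2OS cells. Compound added 30 min before overnight challenge with 20 μg/ml bovine collagen II; data scaled between vehicle and collagen-stimulated controls, IC50 derived by four-parameter variable-slope fitting.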

In test [3] the target is T2, DDR2 (Homo sapiens, UniProt Q16832).
T2 sequence (Q16832 22-855): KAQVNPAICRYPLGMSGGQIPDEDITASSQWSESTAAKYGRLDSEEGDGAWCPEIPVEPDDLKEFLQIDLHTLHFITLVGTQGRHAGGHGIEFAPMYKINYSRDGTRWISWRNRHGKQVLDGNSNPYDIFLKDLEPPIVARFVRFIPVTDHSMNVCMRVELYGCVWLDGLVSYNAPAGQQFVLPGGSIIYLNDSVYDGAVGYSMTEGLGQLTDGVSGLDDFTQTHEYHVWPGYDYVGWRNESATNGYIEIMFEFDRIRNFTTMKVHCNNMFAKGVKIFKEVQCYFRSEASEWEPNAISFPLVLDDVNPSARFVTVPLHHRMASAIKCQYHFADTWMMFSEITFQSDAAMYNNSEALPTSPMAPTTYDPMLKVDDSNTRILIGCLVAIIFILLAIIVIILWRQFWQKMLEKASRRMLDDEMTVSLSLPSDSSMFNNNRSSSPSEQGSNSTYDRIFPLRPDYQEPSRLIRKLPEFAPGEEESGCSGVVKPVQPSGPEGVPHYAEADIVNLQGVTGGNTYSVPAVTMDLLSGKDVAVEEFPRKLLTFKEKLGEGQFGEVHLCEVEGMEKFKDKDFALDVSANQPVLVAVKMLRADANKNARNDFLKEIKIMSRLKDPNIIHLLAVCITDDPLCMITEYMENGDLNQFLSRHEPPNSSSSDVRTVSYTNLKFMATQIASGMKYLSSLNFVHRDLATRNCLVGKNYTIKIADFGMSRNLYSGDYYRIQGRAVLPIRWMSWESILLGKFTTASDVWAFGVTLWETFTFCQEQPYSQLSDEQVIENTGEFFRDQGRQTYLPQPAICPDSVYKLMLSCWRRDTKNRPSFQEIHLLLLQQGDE
Briefly: DDR2 LanthaScreen Europium Kinase Binding assay. Particulars: binding affinity; IC50 converted in Ki using Cheng-Prusoff; read-out: Ki DDR2. In outline:
as §1
(In general: TR-FRET usually uses a lanthanide donor and a delayed reading to cut background.)

T1 sequence (Q08345 19-913): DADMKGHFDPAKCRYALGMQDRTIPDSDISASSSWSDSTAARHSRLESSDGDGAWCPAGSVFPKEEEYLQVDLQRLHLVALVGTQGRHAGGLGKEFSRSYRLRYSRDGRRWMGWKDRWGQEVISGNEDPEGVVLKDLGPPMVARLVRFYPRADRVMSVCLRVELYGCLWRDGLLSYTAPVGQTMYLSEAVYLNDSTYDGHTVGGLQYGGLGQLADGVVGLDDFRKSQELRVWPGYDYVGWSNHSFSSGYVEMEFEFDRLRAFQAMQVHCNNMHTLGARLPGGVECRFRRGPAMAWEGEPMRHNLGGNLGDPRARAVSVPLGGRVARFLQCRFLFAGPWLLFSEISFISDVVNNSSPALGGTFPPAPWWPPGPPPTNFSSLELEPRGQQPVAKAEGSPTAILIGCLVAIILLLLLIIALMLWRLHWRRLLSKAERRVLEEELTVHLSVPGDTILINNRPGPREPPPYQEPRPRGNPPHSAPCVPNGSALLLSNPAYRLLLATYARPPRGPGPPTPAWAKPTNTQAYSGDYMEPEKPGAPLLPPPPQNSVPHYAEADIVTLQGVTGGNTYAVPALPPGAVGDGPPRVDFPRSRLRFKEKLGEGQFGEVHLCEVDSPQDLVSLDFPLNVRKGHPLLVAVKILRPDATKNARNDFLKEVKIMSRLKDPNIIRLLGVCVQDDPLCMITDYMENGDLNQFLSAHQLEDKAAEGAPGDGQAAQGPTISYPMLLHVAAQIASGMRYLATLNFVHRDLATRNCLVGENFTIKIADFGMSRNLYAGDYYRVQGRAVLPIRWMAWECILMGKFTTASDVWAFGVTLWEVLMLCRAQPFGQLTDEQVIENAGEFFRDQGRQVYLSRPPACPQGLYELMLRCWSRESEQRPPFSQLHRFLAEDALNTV

Take `CN1CCN(Cc2ccc(NC(=O)c3ccc4c(c3)N(Cc3cnc5c(c3)CCN5)CC4)cc2C(F)(F)F)CC1` [Example 77, 1-((2,3-dihydro-1H-pyrrolo[2,3-b]pyridin-5-yl)methyl)-N-(4-((4-methylpiperazin-1-yl)methyl)-3-(trifluoromethyl)phenyl)indoline-6-carboxamide]: the values for the inhibition constant (Ki) in test [1] and in test [3] were < 25 nM and 25 to 50 nM, respectively. Besides, in test [2], the 50% inhibitory concentration (IC50) is < 25 nM.
Regarding `Cc1cn(-c2cc(NC(=O)c3ccc4c(c3)N(Cc3cnc5cnccn35)CC4C)cc(C(F)(F)F)c2)cn1` (racemic) [Example 26, 1-(imidazo[1,2-a]pyrazin-3-ylmethyl)-3-methyl-N-(3-(4-methyl-1H-imidazol-1-yl)-5-(trifluoromethyl)phenyl)indoline-6-carboxamide], the Ki in test [1] and in test [3] was < 25 nM throughout. This compound had a concentration for half-maximal inhibition (IC50) in test [2] of 25 to 50 nM.
Take `CN1CCN(Cc2cc(C(=O)Nc3ccc4c(c3)N(Cc3ccc5ncsc5c3)CC4)cc(C(F)(F)F)c2)CC1` [Example 17, N-(1-(benzo[d]thiazol-6-ylmethyl)indolin-6-yl)-3-((4-methylpiperazin-1-yl)methyl)-5-(trifluoromethyl)benzamide]: the Ki in test [1] and in test [3] was < 25 nM throughout. Moreover, in test [2], the IC50 lay within 25 to 50 nM.
Take `CN1CCN(Cc2cc(NC(=O)c3ccc4c(c3)N(C(=O)c3cnc5ccccn35)CC4)cc(C(F)(F)F)c2)CC1` [Example 14, 1-(imidazo[1,2-a]pyridine-3-carbonyl)-N-(3-((4-methylpiperazin-1-yl)methyl)-5-(trifluoromethyl)phenyl)indoline-6-carboxamide]: the inhibition constant Ki in test [1] and in test [3] was < 25 nM throughout. Moreover, the IC50 in test [2] lay within 25 to 50 nM.
With `Cc1n[nH]c2ncc(CN3CCc4ccc(C(=O)Nc5cc(CN6CC[C@@H](N(C)C)C6)nc(C(F)(F)F)c5)cc43)cc12` [Example 84, (R)-N-(2-((3-(dimethylamino)pyrrolidin-1-yl)methyl)-6-(trifluoromethyl)pyridin-4-yl)-1-((3-methyl-1H-pyrazolo[3,4-b]pyridin-5-yl)methyl)indoline-6-carboxamide], the inhibition constant (Ki) in test [1] and in test [3] was < 25 nM throughout. Also, the half-inhibitory concentration (IC50) in test [2] was < 25 nM.
Turning to `COc1ccc(NC(=O)c2ccc3c(c2)N(Cc2cnc4cnccn24)CC3)cc1C(F)(F)F` [Example 46, 1-(imidazo[1,2-a]pyrazin-3-ylmethyl)-N-(4-methoxy-3-(trifluoromethyl)phenyl)indoline-6-carboxamide], the Ki in test [1] was < 25 nM; in test [3], 25 to 50 nM. Further, the half-maximal inhibitory concentration (IC50) in test [2] was in the range of 50 to 80 nM.
As for `Cc1n[nH]c2ncc(CN3CCc4ccc(C(=O)Nc5cc(CN6CCN(C)CC6)cc(C(F)(F)F)c5)cc43)cc12` [Example 68, 1-((3-methyl-1H-pyrazolo[3,4-b]pyridin-5-yl)methyl)-N-(3-((4-methylpiperazin-1-yl)methyl)-5-(trifluoromethyl)phenyl)indoline-6-carboxamide], the inhibitory constant (Ki) in test [1] and in test [3] was < 25 nM in each case. Also, the IC50 in test [2] is < 25 nM.
With `Cc1n[nH]c2ncc(CN3CCc4ccc(C(=O)Nc5cc(OCCN6CCCC6)cc(C(F)(F)F)c5)cc43)cc12` [Example 85, 1-((3-methyl-1H-pyrazolo[3,4-b]pyridin-5-yl)methyl)-N-(3-(2-(pyrrolidin-1-yl)ethoxy)-5-(trifluoromethyl)phenyl)indoline-6-carboxamide], the Ki in test [1] and in test [3] was < 25 nM in each case. For the same compound, the IC50 in test [2] was < 25 nM.
For `O=C(Nc1cccc(C(F)(F)F)c1)c1ccc2c(c1)N(Cc1cnc3cnccn13)CC2` [Example 42, 1-(imidazo[1,2-a]pyrazin-3-ylmethyl)-N-(3-(trifluoromethyl)phenyl)indoline-6-carboxamide], the Ki in test [1] and in test [3] was < 25 nM each time. Further, in test [2], the half-inhibitory concentration (IC50) was < 25 nM.
For `Cc1n[nH]c2ncc(CN3CCc4ccc(C(=O)Nc5ccc(CN6CCCC6)c(C(F)(F)F)c5)cc43)cc12` [Example 70, 1-((3-methyl-1H-pyrazolo[3,4-b]pyridin-5-yl)methyl)-N-(4-(pyrrolidin-1-ylmethyl)-3-(trifluoromethyl)phenyl)indoline-6-carboxamide], the Ki in test [1] and in test [3] was < 25 nM each time. In test [2], this compound came in with an IC50 of 25 to 50 nM.
Turning to `O=C(Nc1cc(F)cc(OC(F)(F)F)c1)c1ccc2c(c1)N(Cc1cnc3cnccn13)CC2` [Example 44, N-(3-fluoro-5-(trifluoromethoxy)phenyl)-1-(imidazo[1,2-a]pyrazin-3-ylmethyl)indoline-6-carboxamide], the inhibitory constant (Ki) in test [1] and in test [3] was < 25 nM in each case. Besides, the IC50 in test [2] is < 25 nM.
In the case of `CC(C)(C)c1cc(NC(=O)c2ccc3c(c2)N(Cc2cnc4[nH]ncc4c2)CC3)n(-c2ccccc2)n1` [Example 40, 1-((1H-pyrazolo[3,4-b]pyridin-5-yl)methyl)-N-(3-(tert-butyl)-1-phenyl-1H-pyrazol-5-yl)indoline-6-carboxamide], the Ki in test [1] was 25 to 50 nM; in test [3], < 25 nM. In test [2], this compound returned a 50% inhibitory concentration (IC50) of 25 to 50 nM.
Take `Cc1n[nH]c2ncc(CN3CCc4ccc(C(=O)Nc5cc(C(=O)NCCN(C)C)cc(C(F)(F)F)c5)cc43)cc12` [Example 73, N-(3-((2-(dimethylamino)ethyl)carbamoyl)-5-(trifluoromethyl)phenyl)-1-((3-methyl-1H-pyrazolo[3,4-b]pyridin-5-yl)methyl)indoline-6-carboxamide]: the Ki in test [1] and in test [3] was < 25 nM each time. The IC50 in test [2] is < 25 nM.
In the case of `Cc1cn(-c2cc(NC(=O)c3ccc4c(c3)N(Cc3cnc5ccccn35)CC4C)cc(C(F)(F)F)c2)cn1` (stereo not drawn) [Example 25, 1-(imidazo[1,2-a]pyridin-3-ylmethyl)-3-methyl-N-(3-(4-methyl-1H-imidazol-1-yl)-5-(trifluoromethyl)phenyl)indoline-6-carboxamide], the Ki was < 25 nM in test [1] and 25 to 50 nM in test [3]. The same compound yielded an IC50 in test [2] of 25 to 50 nM.
With `CN(C)Cc1ccc(NC(=O)c2ccc3c(c2)N(Cc2cnc4cnccn24)CC3)cc1C(F)(F)F` [Example 48, N-(4-((dimethylamino)methyl)-3-(trifluoromethyl)phenyl)-1-(imidazo[1,2-a]pyrazin-3-ylmethyl)indoline-6-carboxamide], the inhibition constant (Ki) in test [1] and in test [3] was < 25 nM throughout. For the same compound, in test [2], the IC50 fell in the range of 25 to 50 nM.
As for `CC1CN(Cc2cnc3ccccn23)c2cc(C(=O)Nc3cccc(C(F)(F)F)c3)ccc21` (stereo not drawn) [Example 33, 1-(imidazo[1,2-a]pyridin-3-ylmethyl)-3-methyl-N-(3-(trifluoromethyl)phenyl)indoline-6-carboxamide], the results for the inhibition constant Ki in test [1] and in test [3] were < 25 nM and 25 to 50 nM, respectively. In test [2], the concentration for half-maximal inhibition (IC50) fell in the range of 50 to 80 nM.
On the same counts, the results for `Cc1n[nH]c2ncc(CN3CCc4ccc(C(=O)Nc5cc(CN(C)C)nc(C(F)(F)F)c5)cc43)cc12` [Example 82, N-(2-((dimethylamino)methyl)-6-(trifluoromethyl)pyridin-4-yl)-1-((3-methyl-1H-pyrazolo[3,4-b]pyridin-5-yl)methyl)indoline-6-carboxamide] are < 25 nM, < 25 nM and < 25 nM.
In the case of `O=C(Nc1cc(CN2CCOCC2)cc(C(F)(F)F)c1)c1ccc2c(c1)N(Cc1cnc3cnccn13)CC2` [Example 49, 1-(imidazo[1,2-a]pyrazin-3-ylmethyl)-N-(3-(morpholinomethyl)-5-(trifluoromethyl)phenyl)indoline-6-carboxamide], the inhibition constant (Ki) in test [1] and in test [3] was < 25 nM in each case. Moreover, the half-inhibitory concentration (IC50) in test [2] fell in the range of 50 to 80 nM.
Turning to `Cc1cn(-c2cc(C(=O)Nc3ccc4c(c3)N(Cc3cnc5ccccn35)CC4)cc(C(F)(F)F)c2)cn1` [Example 23, N-(1-(imidazo[1,2-a]pyridin-3-ylmethyl)indolin-6-yl)-3-(4-methyl-1H-imidazol-1-yl)-5-(trifluoromethyl)benzamide], the Ki in test [1] and in test [3] was < 25 nM throughout. Further, the concentration for half-maximal inhibition (IC50) in test [2] is 50 to 80 nM.
